Measured values published in patent US11912705B2, “Cathinone derivatives, pharmaceutical formulations, and methods” (The Corporation of Mercer University, priority 2020, dated 2024).

Key:
[1] = molecular target: T1, Norepinephrine transporter (Homo sapiens, UniProt P23975); test: Norepinephrine transporter uptake (h); assay type: cell-based
T1 construct: Eurofins/Cerep (contract testing)
Method: For antagonist assays, Kb affinity values were calculated from IC50 values using GraphPad Prism 9 (San Diego, Calif. USA).

M2 (h) = molecular target: T2, M2 (h) (Homo sapiens, UniProt P08172); test: M2 (h) antagonist effect, cAMP HTRF cellular functional assay; assay type: cell-based
T2 construct: expressed in transfected cells; host or cells: CHO cells (human recombinant)
T2 sequence (P08172 1-466): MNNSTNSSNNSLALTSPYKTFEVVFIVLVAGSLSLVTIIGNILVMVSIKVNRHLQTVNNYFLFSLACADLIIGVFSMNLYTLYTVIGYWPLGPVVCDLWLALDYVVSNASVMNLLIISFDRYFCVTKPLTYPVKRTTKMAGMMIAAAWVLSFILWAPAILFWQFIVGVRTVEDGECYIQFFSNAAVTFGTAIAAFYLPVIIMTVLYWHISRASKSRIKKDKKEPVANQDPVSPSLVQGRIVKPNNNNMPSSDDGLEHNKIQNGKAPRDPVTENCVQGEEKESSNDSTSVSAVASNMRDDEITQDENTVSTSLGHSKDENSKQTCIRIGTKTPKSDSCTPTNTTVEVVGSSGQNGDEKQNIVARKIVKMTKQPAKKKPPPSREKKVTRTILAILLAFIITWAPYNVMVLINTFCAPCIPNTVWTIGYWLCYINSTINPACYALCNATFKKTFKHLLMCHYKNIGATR
Method: (§1) Compounds (1) and (2) were tested at several concentrations for IC50 or EC50 determination at target receptors. […] For antagonist assays, Kb affinity values were calculated from IC50 values using GraphPad Prism 9 (San Diego, Calif. USA).

Dopamine transporter = molecular target: T3, Dopamine transporter (Homo sapiens, UniProt Q01959); test: Dopamine transporter uptake (h); assay type: cell-based
T3 construct: Eurofins/Cerep (contract testing)
T3 sequence (Q01959 whole entry): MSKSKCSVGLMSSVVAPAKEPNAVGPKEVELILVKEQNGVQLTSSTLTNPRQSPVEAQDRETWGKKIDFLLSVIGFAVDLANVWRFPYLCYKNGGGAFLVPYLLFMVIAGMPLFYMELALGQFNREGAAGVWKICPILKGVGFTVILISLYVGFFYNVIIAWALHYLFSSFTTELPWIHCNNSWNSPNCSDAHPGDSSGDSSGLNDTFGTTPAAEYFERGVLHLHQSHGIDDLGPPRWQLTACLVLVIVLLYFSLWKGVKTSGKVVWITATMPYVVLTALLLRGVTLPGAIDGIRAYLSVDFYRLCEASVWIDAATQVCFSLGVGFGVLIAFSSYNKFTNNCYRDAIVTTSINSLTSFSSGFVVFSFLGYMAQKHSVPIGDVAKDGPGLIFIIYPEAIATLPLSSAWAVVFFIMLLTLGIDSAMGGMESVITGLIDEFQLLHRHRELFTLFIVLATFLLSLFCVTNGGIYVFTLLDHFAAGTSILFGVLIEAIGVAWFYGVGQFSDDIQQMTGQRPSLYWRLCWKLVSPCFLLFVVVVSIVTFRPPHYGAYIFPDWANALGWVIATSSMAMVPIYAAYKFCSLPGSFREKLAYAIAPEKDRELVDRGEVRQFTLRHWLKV
Method: as §1

[2] = system: mice on the FVB background; test: Defecation (fecal pellets) / gastrointestinal motility in mice; assay type: in vivo; conditions: 2.8 mg/kg, s.c.
Method: Since functional inhibition of neurotransmitter transporters, particularly DAT, is classically known to cause psychomotor stimulation, the ability of Compound (1) to induce this effect in mice was assessed, directly comparing results to α-PHP, a pyrrolidine-substituted analog of Compound (1). Adult male and female mice on the FVB background were injected subcutaneously and then immediately placed inside of an open field chamber, where their activity was recorded automatically for 20-min by an overhead camera connected to a PC running EthoVision XT software. […] Data are means (±SEM).
Consistent with pre-synaptic M2R antagonist activity, also observed was an increase in defecation caused by Compound (1) (FIG. 4). […] Regarding FIG. 4, Compound (1) (2.8 mg/kg, s.c.) increased gastrointestinal motility compared to vehicle and α-PHP (2.8 mg/kg, s.c.) treated mice. Scatter dot plots with means (±SEMs).

M2Rs = molecular target: T4, M2Rs (Homo sapiens, UniProt P08172); test: M2R β-arrestin recruitment; assay type: cell-based
T4 sequence (P08172 1-466): T2 sequence (P08172 1-466)
Source text: Data are shown as normalized means (±SEM) of two, independent determinations, with oxotremorine tested at each concentration in duplicate and α-PHP tested in quadruplicate. [*Basal signaling is defined as the normalized RLU emitted by untreated cells.]

human DAT [3] = molecular target: T5, human DAT (Homo sapiens, UniProt Q01959); conditions: from Eshleman et al. 2017, cited from earlier work
T5 sequence (Q01959 whole entry): as above

human SERT [4] = molecular target: T6, human SERT (Homo sapiens, UniProt P31645); conditions: read-out: Uptake Inhibition (IC50) SERT; from Eshleman et al. 2017; cited from earlier work
T6 sequence (P31645 whole entry): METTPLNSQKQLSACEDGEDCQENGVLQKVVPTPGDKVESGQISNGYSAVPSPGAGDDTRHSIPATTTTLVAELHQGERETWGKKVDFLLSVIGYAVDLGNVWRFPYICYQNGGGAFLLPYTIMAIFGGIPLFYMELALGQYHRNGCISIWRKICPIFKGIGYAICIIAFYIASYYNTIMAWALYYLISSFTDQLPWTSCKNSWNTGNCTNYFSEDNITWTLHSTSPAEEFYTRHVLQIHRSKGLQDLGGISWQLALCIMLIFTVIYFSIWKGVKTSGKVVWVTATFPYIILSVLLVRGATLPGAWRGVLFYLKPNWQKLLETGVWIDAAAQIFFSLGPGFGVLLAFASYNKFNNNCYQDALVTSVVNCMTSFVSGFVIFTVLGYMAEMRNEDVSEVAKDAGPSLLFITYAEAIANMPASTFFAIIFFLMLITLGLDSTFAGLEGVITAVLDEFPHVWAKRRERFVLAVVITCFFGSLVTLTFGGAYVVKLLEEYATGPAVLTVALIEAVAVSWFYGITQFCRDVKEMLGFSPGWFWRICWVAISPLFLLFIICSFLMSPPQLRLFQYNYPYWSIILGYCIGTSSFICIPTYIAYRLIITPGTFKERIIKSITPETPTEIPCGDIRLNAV

human SERT [5] = molecular target: T6, human SERT; conditions: read-out: Affinity (Ki) SERT; from Eshleman et al. 2017; cited from earlier work
human NET [6] = molecular target: T7, human NET (Homo sapiens, UniProt P23975); conditions: read-out: Uptake Inhibition (IC50) NET; from Eshleman et al. 2017; cited from earlier work
T7 sequence (P23975 whole entry): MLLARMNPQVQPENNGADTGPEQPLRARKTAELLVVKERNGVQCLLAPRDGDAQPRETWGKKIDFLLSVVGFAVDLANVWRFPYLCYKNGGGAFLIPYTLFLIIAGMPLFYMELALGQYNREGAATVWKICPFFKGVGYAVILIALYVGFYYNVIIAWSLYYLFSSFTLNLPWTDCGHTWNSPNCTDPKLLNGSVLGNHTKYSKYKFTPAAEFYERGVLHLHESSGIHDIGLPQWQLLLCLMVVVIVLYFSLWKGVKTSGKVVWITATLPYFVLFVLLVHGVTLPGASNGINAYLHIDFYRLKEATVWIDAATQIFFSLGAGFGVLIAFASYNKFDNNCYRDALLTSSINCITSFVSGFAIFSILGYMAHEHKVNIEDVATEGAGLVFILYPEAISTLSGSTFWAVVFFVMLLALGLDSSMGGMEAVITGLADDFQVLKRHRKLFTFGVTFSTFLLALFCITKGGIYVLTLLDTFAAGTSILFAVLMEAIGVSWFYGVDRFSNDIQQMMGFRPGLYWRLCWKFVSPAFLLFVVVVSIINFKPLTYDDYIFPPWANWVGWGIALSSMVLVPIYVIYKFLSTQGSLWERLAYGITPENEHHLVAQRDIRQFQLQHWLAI

human M1Rs = molecular target: T8, human M1Rs (Homo sapiens, UniProt P11229); test: M1R phosphoinositide hydrolysis (IP-One HTRF); assay type: cell-based
T8 construct: host or cells: HEK293 (CRL-1573, ATCC), transient
T8 sequence (P11229 1-460): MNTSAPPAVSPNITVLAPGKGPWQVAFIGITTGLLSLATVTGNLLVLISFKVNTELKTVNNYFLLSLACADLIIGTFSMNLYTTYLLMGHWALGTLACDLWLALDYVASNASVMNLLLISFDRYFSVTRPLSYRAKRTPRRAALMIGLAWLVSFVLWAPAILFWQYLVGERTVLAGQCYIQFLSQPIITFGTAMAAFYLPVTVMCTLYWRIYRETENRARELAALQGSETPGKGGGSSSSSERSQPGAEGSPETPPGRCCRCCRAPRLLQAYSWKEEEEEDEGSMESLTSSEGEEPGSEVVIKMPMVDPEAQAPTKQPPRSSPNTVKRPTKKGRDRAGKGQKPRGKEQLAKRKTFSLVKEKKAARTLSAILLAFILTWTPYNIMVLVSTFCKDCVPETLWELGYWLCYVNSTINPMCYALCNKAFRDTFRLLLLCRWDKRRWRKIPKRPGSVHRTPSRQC

human DAT [7] = molecular target: T5, human DAT; conditions: read-out: Uptake Inhibition (IC50) DAT; from Eshleman et al. 2017; cited from earlier work
human NET [8] = molecular target: T7, human NET; conditions: from Eshleman et al. 2017, cited from earlier work

T1 sequence (P23975 whole entry): as the sequence (P23975 whole entry) above

SMILES | IC50 [1] | IC50 (M2 (h)) | Kb (M2 (h)) | IC50 (Dopamine transporter) | number of fecal pellets (defecation, gastrointestinal motility) [2] | Kb (M2Rs) | affinity at DAT, fold higher than α-PPP (human DAT [3]) | Ki (human DAT [3]; read-out: Affinity (Ki) DAT) | IC50 (human SERT [4]) | Ki (human SERT [5]) | IC50 (human NET [6]) | Kb (human M1Rs) | IC50 (human DAT [7]) | affinity at NET, fold higher than α-PPP (human NET [8]) | Ki (human NET [8]; read-out: Affinity (Ki) NET)
CCCCC(C(=O)c1ccccc1)N1CCCCC1 (centres unmarked) [Compound (1), 1-phenyl-2-(piperidin-1-yl)hexan-1-one] | 1300 nM | 1700 nM | 120 nM | 47 nM | significantly higher than both vehicle (p<0.0001) and α-PHP treated mice |  |  |  |  |  |  |  |  |  | 
CCCCC(C(=O)c1ccccc1)N1CCCCCC1 (centres unmarked) [Compound (2), 2-(azepan-1-yl)-1-phenylhexan-1-one] | 1100 nM | 2000 nM | 160 nM | 70 nM |  |  |  |  |  |  |  |  |  |  | 
CCCCC(C(=O)c1ccccc1)N1CCCC1 (stereo not drawn) [α-PHP, 1-phenyl-2-(pyrrolidin-1-yl)hexan-1-one] |  |  |  |  | no significant difference was observed between the vehicle and α-PHP groups | 501 nM | 81 fold | 16 nM | 40000 nM | 33000 nM | 30 nM | 1380 nM | 22 nM | 6 fold | 300 nM
